Test results from ChEMBL document CHEMBL1140081 (J Med Chem, 2008).

What was measured:
[1] = target: Human immunodeficiency virus type 1 integrase (Human immunodeficiency virus 1, UniProt Q7ZJM1); assay: Inhibition of HIV1 recombinant integrase strand transfer activity
[2] = tested on: Human immunodeficiency virus 1; assay: Antiviral activity against HIV1 3B in human MT4 cells in presence of 50% normal human serum; type: functional; conditions: Human immunodeficiency virus 1, 3B, MT4; read-out: CIC95
[3] = tested on: Human immunodeficiency virus 1; assay: Antiviral activity against HIV1 3B in human MT4 cells in presence of 10% heat-inactivated fetal bovine serum; conditions: Human immunodeficiency virus 1, 3B, read-out: CIC95
[4] = tested on: Human immunodeficiency virus 1; assay: Antiviral activity against HIV1 with integrase T66I/M154 mutation by single cycle infectivity assay in presence of 10%FBS; type: functional
[5] = tested on: Human immunodeficiency virus 1; assay: Antiviral activity against HIV1 with integrase T66I/S153Y mutation by single cycle infectivity assay in presence of 10%FBS; type: functional
[6] = tested on: Human immunodeficiency virus 1; assay: Antiviral activity against HIV1 with integrase N155S mutation by single cycle infectivity assay in presence of 10%FBS; type: functional
[7] = tested on: Human immunodeficiency virus 1; assay: Antiviral activity against HIV1 with integrase T125K/F121Y mutation by single cycle infectivity assay in presence of 10%FBS; type: functional
[8] = tested on: Human immunodeficiency virus 1; assay: Antiviral activity against HIV1 with integrase T66I/L74M/V151I mutation by single cycle infectivity assay in presence of 10%FBS; type: functional

Sequence of Human immunodeficiency virus type 1 integrase (Q7ZJM1 whole entry): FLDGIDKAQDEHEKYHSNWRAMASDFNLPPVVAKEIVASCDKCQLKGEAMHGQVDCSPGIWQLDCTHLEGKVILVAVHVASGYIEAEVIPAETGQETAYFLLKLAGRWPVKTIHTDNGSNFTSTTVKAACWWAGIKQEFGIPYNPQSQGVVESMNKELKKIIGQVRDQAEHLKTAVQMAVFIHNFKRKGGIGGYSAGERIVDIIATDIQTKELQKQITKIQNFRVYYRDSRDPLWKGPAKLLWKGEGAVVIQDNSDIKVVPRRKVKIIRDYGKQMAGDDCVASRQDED

| Structure (SMILES) | IC50 [1] [nM] | IC95 [2] [nM] | IC95 [3] [nM] | Activity [4] [%] | Activity [5] [%] | Activity [6] [%] | Activity [7] [%] | Activity [8] [%] |
| --- | --- | --- | --- | --- | --- | --- | --- | --- |
| CC(=O)NC(C)(C)c1nc(C(=O)NCc2ccc(F)cc2)c(O)c(=O)n1C | 7 | 400 | 310 |  |  |  |  |  |
| CN1CCN(C(=O)C(=O)NC(C)(C)c2nc(C(=O)NCc3ccc(F)cc3)c(O)c(=O)n2C)CC1 | 26 | 250 | 125 |  |  |  |  |  |
| CNC(=O)c1nc(C(C)(C)NC(=O)C(=O)N(C)C)n(C)c(=O)c1O | > 5000 | > 10000 | > 10000 |  |  |  |  |  |
| CN(C)C(C)(C)c1nc(C(=O)NCc2ccc(F)cc2)c(O)c(=O)n1C | 230 | > 1000 | 1000 |  |  |  |  |  |
| CN(C)S(=O)(=O)NC(C)(C)c1nc(C(=O)NCc2ccc(F)cc2)c(O)c(=O)n1C | 12 | 500 | 125 |  |  |  |  |  |
| CN(C)C(=O)C(=O)N(C)C(C)(C)c1nc(C(=O)NCc2ccc(F)cc2)c(O)c(=O)n1C | 15 | 125 | 62 |  |  |  |  |  |
| COC(=O)C(=O)NC(C)(C)c1nc(C(=O)NCc2ccc(F)cc2)c(O)c(=O)n1C | 15 | > 1000 | 1000 |  |  |  |  |  |
| CN(C)C(=O)NC(C)(C)c1nc(C(=O)NCc2ccc(F)cc2)c(O)c(=O)n1C | 18 | > 1000 | 1000 |  |  |  |  |  |
| Cn1c(C(C)(C)NC(=O)C(=O)N2CCOCC2)nc(C(=O)NCc2ccc(F)cc2)c(O)c1=O | 20 | 125 | 125 |  |  |  |  |  |
| Cc1nnc(C(=O)NC(C)(C)c2nc(C(=O)NCc3ccc(F)cc3)c(O)c(=O)n2C)[nH]1 | 4 | 1000 | 250 |  |  |  |  |  |
| CN(C)C(=O)C(=O)NC(C)(C)c1nc(C(=O)NCc2ccc(F)cc2S(C)(=O)=O)c(O)c(=O)n1C | 4 | 125 | 125 |  |  |  |  |  |
| Cn1c(C(C)(C)NC(=O)c2ncccn2)nc(C(=O)NCc2ccc(F)cc2)c(O)c1=O | 7 | 50 | 20 |  |  |  |  |  |
| Cn1c(C(C)(C)NC(=O)C(=O)O)nc(C(=O)NCc2ccc(F)cc2)c(O)c1=O | 4 | 1000 | 250 |  |  |  |  |  |
| Cn1c(C(C)(C)NS(C)(=O)=O)nc(C(=O)NCc2ccc(F)cc2)c(O)c1=O | 8 | 1000 | 62 |  |  |  |  |  |
| O=C(/C=C(\O)c1nc[nH]n1)c1ccc(Cc2ccc(F)cc2)o1 [S-1360] |  |  |  | 20 | 50 | >50 | 50 | 100 |
